One assay deals with S. aureus. In words: S. aureus spiked contamination screen of natural preservatives in chocolate spread. Details: unit not given here. Type of assay: cell-based. From the text: In addition, even MCT, and derivatives are screened as useful natural preservatives of the composition, GML-glycerol monolaurate is selected as an adjunctive multifunctional natural preservative to MOCL based composition.

The next assay relates to P. acnes. In words: MIC/MBC against P. acnes by microdilution method. Type of assay: cell-based. The following applies: for MBC: TriAza batches and their soaps; for MIC: Cutibacterium acnes. From the text: TriAza was designed as a pro-drug of azelaic acid, a known antibacterial agent, for the treatment of skin disorders associated with pathogenic propagation of bacteria. For example, the development of Acne vulgaris is tightly associated with extensive accumulation of P. acnes in the sebaceous gland, a milieu of the disease. To determine the antibacterial activity of TriAza against P. acnes, we tested the minimal bactericidal concentration (MBC) of TriAza. The effect of TriAza was compared to the MBC of azelaic acid and benzoyl peroxide (BPO), two main competitors used in the treatment of acne.
To compare the antimicrobial activities of various batches of TriAza we determined MIC of number of batches that were prepared with non-principal modifications. Selected batches were labeled as TriAza −3, TriAza −6, TriAza −7 and TriAza −19 and supplied to the growth medium of P. acnes. A, minimal inhibitory concentration of the batches was monitored and compared to each other. […] For further analysis, batch TriAza −19 was chosen as a batch containing the minimal amount of pelargonic acid.
Since TriAza is designed for marketing as a soap, we decided to define an antibacterial activity of its soap. […] It should be stressed that despite the decreased activity of TriAza soap it is still higher than that of azelaic acid (Table 1 and 2).
Example 12: Microbiome balance effect: Selection of methods for QC-quality control-Functional Potency. Testing minimal inhibitory concentration (MIC) to P. acnes was executed by microdilution method. TriAza based biocontrol, microbial preservation. P. acnes after double passage on Chocolate plates (Novamed) were grown bacteria in anaerobic conditions at 37° C. for 1-2 days. The bacteria were Gram stained and the proper morphology of the bacteria was assured. Then, bacteria were resuspended in Thioglycolate medium (HyLabs) at concentration of 0.02 O.D.600. Meanwhile, ELISA plates containing at the first raw 200 μl of undiluted tested material were prepared. The rest wells were filled with 100 μl of Thioglycolate medium and 11 serial […] by transferring 100 μl of undiluted material was performed. Once the ELISA plate was ready, 100 μl of prepared bacterial culture was added. Bacteria alone and medium w/o bacteria were used as standard controls. The plates were incubated in anaerobic conditions at 37° C. for 2 days. Minimal inhibitory concentration was determined visually and spectrophotometrically, while minimal bactericidal concentration was determined after plating of the bacteria on solid medium (Chocolate plates). On the plates bacteria were incubated in anaerobic conditions at 37° C. for 2 days and the number of appearing colonies were counted manually. Specification for positive functional potency for batch acceptance for the TriAza batches tested are selected in range of antimicrobial activity-MIC between 0,25-1 mM.
P. acnes after double passage on Chocolate plates (Novamed) were grown in anaerobic conditions at 37° C. for 1-2 days. The bacteria were Gram stained and the proper morphology of the bacteria was assured. Then, bacteria were resuspend in Thioglycolate medium
(HyLabs) at concentration of 0.02 O.D.600. Meanwhile, ELISA plates containing at the first raw undiluted tested material were prepared. The rest wells were filled with 100 μl of Thioglycolate medium and 11 serial ½ dilutions by transferring 100 ul of undiluted material was performed. Once the ELISA plate was ready, 100 ul of prepared bacterial culture was added. Bacteria alone and medium w/o bacteria were used as standard controls. The plates were incubated in anaerobic conditions at 37° C. for 2 days. Minimal inhibitory concentration was determined visually and spectrophotometrically, while minimal bactericidal concentration was determined after plating of the bacteria on solid medium (Chocolate plates). […]
A general note: In broth dilution the organism is exposed to a series of concentrations in liquid medium.

Assay [1] has as its system Candida albicans (C. albicans). As to the kind of experiment: MIC/MBC against C. albicans. Type of assay: cell-based. From the text: (§1) For this purpose, we selected a few major skin pathogens and tested their sensitivity to TriAza. We chose Staphylococcus aureus (S. aureus) and Candida albicans (C. albicans), representing bacterial and fungal genera, respectively. Both organisms' express lipase. The bacteria and fungi were exposed to various concentrations of TriAza −19 and its sodium salt, and both the MICs and MBCs of the agents were statistically determined. […] The slight difference in MICs of TriAza against the tested organisms can stem from the difference in their lipase activity.

In assay [2] the test system is Staphylococcus aureus (S. aureus). In words: MIC/MBC against S. aureus. Type of assay: cell-based.
Text: as §1

The test system of assay [3] is P. acnes-associated lipase. In words: P. acnes-associated lipase activity in live culture, release of azelaic acid (TLC). Type of assay: cell-based. Conditions: day 1 and day 5. The procedure:
The activity of C. acnes-associated and P. acnes-associated lipase was tested in the presence of triolein (a trigger of lipase activity). Bacteria was grown for 4 days in liquid medium. P. acnes after double passage on Chocolate plates (Novamed) were grown bacteria in anaerobic conditions at 37° C. for 1-2 days. The bacteria were Gram stained, and the proper morphology of the bacteria was assured. Then, 1 O.D. 600 bacteria were resuspended in 1 ml of Thioglycolate medium (HyLabs) containing 50 μl triolein and grown in anaerobic conditions at 37° C. for 4 days. Following this incubation, 100 μl of emulsified substrate was added to the culture that was further maintained at 37° C. for overnight. Afterwards, the supernatant was separated from the bacteria by 1 min centrifugation at 10000 rpm and subjected to lipid extraction using clorophorm: methanol (2:1). The lipids after nitrogen evaporation and resuspension in clorophorm: methanol (2:1) were separated on silica TLC plates in a development solution of clorophorm: methanol: water (65:25:4), and visualized with BromCresol Green (Sigma).

Assay [4] is described as follows: Subjective evaluation of skin aged appearance in volunteers. Type of assay: in vivo, human. Conditions: scale −3 to 3; three volunteers; after month of use. Here is the method: Method of subjective qualitative evaluation of skin whitening and smoothening at the test site and improvement in fine lines is evaluated subjectively by the investigator and/or by the subjects in accordance with the following scoring pattern:−3=marked deterioration;−2=moderate, visibly uneven deterioration;−1=slight deterioration; 0=no perceptible change or improvement; 1=slight change or improvement; 2=moderate change or improvement (whitening; perceptible and visible change, with less than 50% lightening of skin color); 3=marked or improvement remarkable change or improvement (whitening; very visible change with even and uniform skin whitening covering more than 80% of the contact area). Three study volunteers used TriAza for reduction of skin “aged appearance”-all three after month of use reported 2-3 scale of appearance improvement.

In the next assay the test system is phospholipase A2. As to the kind of experiment: Specificity: hydrolysis of TriAza by phospholipase A2. Type of assay: biochemical. Conditions: equally active enzyme amounts, fixed TriAza concentration. From the text:
(§2) Pure pro-drug activity of designed molecules implies their high specificity towards the target enzyme. TriAza represents the glycerol ester of a specific fatty acid that might be recognized by a mammalian esterase or other triglyceride-utilizing lipase. To establish specificity of bacterial lipase to TriAza, the lipase activity from P. cepacia to that of mammalian esterase and phospholipase A2 were compared. […] The extents of enzyme activities were registered according to the level of generation of azelaic acid.

In a further assay the test system is mammalian esterase. As to the kind of experiment: Specificity: hydrolysis of TriAza by esterase. Type of assay: biochemical. The following applies: equally active enzyme amounts, fixed TriAza concentration.
Text: as §2

In a further assay the target is T1, lipase from P. cepacia (Burkholderia cepacia, UniProt P22088).
T1 construct: purchased
T1 sequence (P22088 45-364): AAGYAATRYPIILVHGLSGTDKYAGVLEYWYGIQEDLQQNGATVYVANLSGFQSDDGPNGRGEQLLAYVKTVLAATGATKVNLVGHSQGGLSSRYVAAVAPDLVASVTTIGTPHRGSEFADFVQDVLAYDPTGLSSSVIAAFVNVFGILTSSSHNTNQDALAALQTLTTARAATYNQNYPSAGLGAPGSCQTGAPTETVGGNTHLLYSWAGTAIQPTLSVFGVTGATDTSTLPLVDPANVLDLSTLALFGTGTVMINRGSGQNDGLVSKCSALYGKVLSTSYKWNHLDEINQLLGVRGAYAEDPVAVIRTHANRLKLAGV
As to the kind of experiment: Bacterial lipase hydrolysis of TriAza, azelaic acid production by TLC. Type of assay: biochemical. The following applies: increasing enzyme amounts, 37° C. Here is the method: To determine the affinity of a bacterial lipase to the active ingredient according to the embodiments of the invention, the ability of the lipase to utilize TriAza as a substrate was tested. For this purpose, the commercially available lipase from P. cepacian was used. Increasing amounts of the enzyme were mixed with a fixed concentration of the substrate, and incubated for a few hours at 37° C. The enzymatic activity was monitored by TLC, by registering the production of azelaic acid.
as §2

Where [5] appears, read: TriAza value is batch #5, MIC of L-PABS equals its MBC, read-out: MIC.

Values after ≈ are worked out from the molar mass of the structure shown. Read-outs that look alike come from different tables or passages of the source.

With `CCCCCCCCC(=O)OCC(COC(=O)CCCCCCCC)OC(=O)CCCCCCCC` [tripelargonin], in the assay with S. aureus, the MIC amounted to 23.

With `O=C(O)CCCCCCCC(=O)OCC(COC(=O)CCCCCCCC(=O)O)OC(=O)CCCCCCCC(=O)O` [TriAza-3], the MBC with P. acnes was determined as 1000 µg/mL (≈ 1.66 mM).

On to `O=C(O)CCCCCCCC(=O)O` [Azelaic acid, reference compound], for which the MIC in the assay on P. acnes (setting [5]) worked out at 3750 µg/mL.

For the molecule `O=C(O)CCCCCCCC(=O)OCC(COC(=O)CCCCCCCC(=O)O)OC(=O)CCCCCCCC(=O)O` [TriAza-6], the MBC with P. acnes worked out at 2800 µg/mL (≈ 4.65 mM).

Turning to `O=C(O)CCCCCCCC(=O)OCC(COC(=O)CCCCCCCC(=O)O)OC(=O)CCCCCCCC(=O)O` [TriAza-7], the MBC against P. acnes was determined as 2000 µg/mL (≈ 3.32 mM).

On to `O=C(O)CCCCCCCC(=O)OCC(COC(=O)CCCCCCCC(=O)O)OC(=O)CCCCCCCC(=O)O` [TriAza-19], for which the MBC in assay [1] was determined as 24000 µg/mL (≈ 39.8 mM); in the assay with P. acnes, 1000 µg/mL (≈ 1.66 mM); in assay [2], 10000 µg/mL (≈ 16.6 mM). Besides, the MIC in assay [1] was found to be 20000 µg/mL (≈ 33.2 mM); in assay [2], 5000 µg/mL (≈ 8.3 mM).

Consider `O=C(O)CCCCCCCC(=O)OCC(COC(=O)CCCCCCCC(=O)O)OC(=O)CCCCCCCC(=O)O` [TriAza, Glycerol triazelate], for which the “time-dependent release of azelaic acid” value in [3] is reported as “maximum lipase hydrolysis on day 5”. For the same molecule, the MIC with P. acnes (setting [5]) stood at 1950 µg/mL; in the assay on P. acnes (batch VA4-1, with surfactant or emulsifier, read-out: MIC bacteriostatic activity, concentration sufficient to stop growth), 1000 µM. Further, the “activity of TriAza relative to Azelaic acid” value in the assay with P. acnes (stronger than Azelaic acid) was determined as 2 fold. The appearance improvement score in assay [4] was 2-3. For the same molecule, the “generation of azelaic acid by phospholipase A2” value in the assay on phospholipase A2 is “neither esterase nor phospholipase A2 could produce azelaic acid”. In addition, the “generation of azelaic acid by esterase” value in the assay on mammalian esterase is on record as “neither esterase nor phospholipase A2 could produce azelaic acid”. For the same molecule, the “utilization as substrate, accumulation of azelaic acid” value on lipase from P. cepacia is reported as “could be utilized as a substrate for bacterial lipase activity”.

Take `O=C(OOC(=O)c1ccccc1)c1ccccc1` [BPO, benzoyl peroxide, reference compound]: the MIC in the assay on P. acnes (setting [5]) came to 500 µg/mL.

The values above are taken from patent US20250186319A1, “ANAPLEROTIC COMPOSITIONS AND USES THEREOF” (EXCELLA BIOSCIENTIFIC LTD, priority 2021, published 2025).
